Assay results published in ChEMBL document CHEMBL1201862, “PubChem BioAssay data set” (2004).
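Growth conditions: 96-well plates. Treatment: test compound, 48 hours, 5 concentrations. Analysis: linear interpolation between bracketing concentrations; unreached endpoints set to highest concentration. GI50: concentration for 50% inhibition of growth.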 The source made the active and inactive calls. No stated cut-off is given here; in the data, active = GI50 up to about 1.1 µM and inactive = higher.

How the values were obtained:
Test in all cases: DTP human tumour cell line panel, 48 h
[1] = test system: ACHN
[2] = test system: CCRF-CEM
[3] = test system: HL-60
[4] = test system: LOX IMVI
[5] = test system: Malme-3M
[6] = test system: NCI-H226
[7] = test system: OVCAR-4
[8] = test system: OVCAR-8
[9] = test system: RXF 393
[10] = test system: SF-268
[11] = test system: SF-539
[12] = test system: SK-MEL-2
[13] = test system: SK-OV-3
[14] = test system: UACC-257
[15] = test system: UACC-62
[16] = test system: 786-0
[17] = test system: COLO 205
[18] = test system: OVCAR-5
[19] = test system: SR

Measured: GI50

CN(C)CCCNC(=O)c1cccc2ccccc12
inactive: [1] > 100 µM | [2] > 100 µM | [3] 12.7 µM | [4] > 100 µM | [5] > 100 µM | [6] > 100 µM | [7] > 100 µM | [8] > 100 µM | [9] > 100 µM | [10] > 100 µM | [11] > 100 µM | [12] > 100 µM | [13] > 100 µM | [14] > 100 µM | [15] > 100 µM

CN(C)c1ccc(/C=C/C=C\c2cc(/C=C/C=C/c3ccc(N(C)C)cc3)[s+]c3ccccc23)cc1.[O-][Cl+3]([O-])([O-])[O-]
inactive: [16] 90.6 µM | [17] 29.3 µM | [3] 4.53 µM | [4] 20.1 µM | [5] 24.4 µM | [6] > 100 µM | [7] 10 µM | [18] > 100 µM | [8] 57.9 µM | [9] 13.1 µM | [10] > 100 µM | [11] > 100 µM | [12] 45.2 µM | [13] 43.7 µM | [14] 59.4 µM | [15] 28.2 µM

O=C(CC(=O)N1N=C(c2ccccc2)C(/N=N/c2ccc(Cl)cc2)C1=O)Nc1ccccc1Cl (stereo not given)
inactive: [16] 12.2 µM | [1] 15.6 µM | [17] > 100 µM | [3] 26.6 µM | [4] 26.2 µM | [6] 19 µM | [7] 16 µM | [18] > 100 µM | [10] 22.5 µM | [11] 24.4 µM | [12] 32.4 µM | [13] 18.8 µM | [19] 24.7 µM | [15] 21.6 µM

CCOC(=O)c1ncn2c1[nH]c(=S)c1ccccc12
inactive: [16] > 100 µM | [1] > 100 µM | [2] 50.2 µM | [17] 49.8 µM | [3] > 100 µM | [4] 61.7 µM | [5] > 100 µM | [6] > 100 µM | [7] > 100 µM | [18] > 100 µM | [8] > 100 µM | [9] > 100 µM | [10] > 100 µM | [11] > 100 µM | [12] > 100 µM | [13] > 100 µM | [14] > 100 µM | [15] > 100 µM

O=C(O)c1ccc(NC(=O)C2C(=O)C(=O)N(c3ccc(C(=O)O)cc3)C2=O)cc1 (stereo not given)
inactive: [16] > 100 µM | [1] > 100 µM | [2] > 100 µM | [17] > 100 µM | [3] > 100 µM | [4] > 100 µM | [5] > 100 µM | [6] > 100 µM | [7] > 100 µM | [18] > 100 µM | [8] > 100 µM | [9] > 100 µM | [10] > 100 µM | [11] > 100 µM | [12] > 100 µM | [13] > 100 µM | [14] > 100 µM | [15] > 100 µM

CCCCCCCCC/C=C1\CCC(CN(C)C)C1=O (stereo not given)
inactive: [1] 2.2 µM | [17] 2.29 µM | [3] 1.94 µM | [4] 1.22 µM | [5] 3.03 µM | [6] 9.51 µM | [18] 14.8 µM | [8] 1.69 µM | [10] 1.97 µM | [11] 1.79 µM | [12] 2.72 µM | [13] 17.2 µM | [19] 2.43 µM | [14] 1.69 µM | [15] 2.48 µM
active: [16] 0.281 µM | [2] 0.721 µM

O=C(CC(=O)C1CCOC1=O)C(=O)Nc1cccc(Cl)c1 (stereo not given)
inactive: [16] > 100 µM | [1] > 100 µM | [17] > 100 µM | [3] > 100 µM | [4] > 100 µM | [5] > 100 µM | [6] > 100 µM | [7] > 100 µM | [18] > 100 µM | [8] > 100 µM | [9] > 100 µM | [10] > 100 µM | [11] > 100 µM | [12] > 100 µM | [13] > 100 µM | [14] > 100 µM | [15] > 100 µM

Cc1ccc(-c2nc3ccccc3c(=O)n2NC2OC(CO)C(O)C(O)C2O)cc1 (stereo not given)
inactive: [16] > 100 µM | [1] > 100 µM | [2] > 100 µM | [17] > 100 µM | [3] > 100 µM | [5] 48.2 µM | [6] > 100 µM | [7] > 100 µM | [18] > 100 µM | [8] > 100 µM | [10] > 100 µM | [11] > 100 µM | [12] > 100 µM | [13] > 100 µM | [14] > 100 µM | [15] > 100 µM

COC(=O)C1CCc2c(OC)ccc(OC)c2C1=O (stereo not given)
inactive: [16] > 100 µM | [1] > 100 µM | [2] > 100 µM | [17] > 100 µM | [3] > 100 µM | [4] > 100 µM | [5] > 100 µM | [7] > 100 µM | [18] > 100 µM | [8] > 100 µM | [11] > 100 µM | [12] > 100 µM | [13] > 100 µM | [14] > 100 µM | [15] > 100 µM

NC(CCC(=O)NC(CSSCCCCS(=O)O)C(=O)NCC(=O)O)C(=O)O (stereo not given)
inactive: [16] > 100 µM | [1] > 100 µM | [2] > 100 µM | [17] > 100 µM | [4] > 100 µM | [5] > 100 µM | [7] > 100 µM | [18] > 100 µM | [8] > 100 µM | [9] > 100 µM | [10] > 100 µM | [11] > 100 µM | [12] > 100 µM | [13] > 100 µM | [14] > 100 µM | [15] > 100 µM

COc1ccc(C2C(Cl)C(=O)N2NC(=O)c2ccccc2O)cc1OC (stereo not given)
inactive: [16] > 100 µM | [1] > 100 µM | [2] 31.6 µM | [3] 41 µM | [4] 36.5 µM | [5] 65.3 µM | [6] > 100 µM | [7] 75.9 µM | [8] 93.1 µM | [9] > 100 µM | [10] 54.2 µM | [11] > 100 µM | [12] 92 µM | [13] 90.2 µM | [14] 93.8 µM | [15] > 100 µM

CC1=NN(C(=O)c2ccc(Cl)cc2)C(=O)/C1=C/c1ccccc1O
inactive: [16] > 100 µM | [1] > 100 µM | [2] > 100 µM | [17] > 100 µM | [3] > 100 µM | [4] > 100 µM | [5] > 100 µM | [7] > 100 µM | [18] > 100 µM | [8] > 100 µM | [9] > 100 µM | [10] > 100 µM | [11] > 100 µM | [12] > 100 µM | [13] > 100 µM | [14] > 100 µM | [15] > 100 µM
